One may read the IC50 as the point on the concentration scale where inhibition reaches its midpoint.

IC50 data for 5 compounds are collected here from ChEMBL document CHEMBL3769398 (J Med Chem, 2016).

The target of test [1] is T1, Histone deacetylase 8 (Homo sapiens, UniProt Q9BY41).
T1 sequence (Q9BY41 whole entry): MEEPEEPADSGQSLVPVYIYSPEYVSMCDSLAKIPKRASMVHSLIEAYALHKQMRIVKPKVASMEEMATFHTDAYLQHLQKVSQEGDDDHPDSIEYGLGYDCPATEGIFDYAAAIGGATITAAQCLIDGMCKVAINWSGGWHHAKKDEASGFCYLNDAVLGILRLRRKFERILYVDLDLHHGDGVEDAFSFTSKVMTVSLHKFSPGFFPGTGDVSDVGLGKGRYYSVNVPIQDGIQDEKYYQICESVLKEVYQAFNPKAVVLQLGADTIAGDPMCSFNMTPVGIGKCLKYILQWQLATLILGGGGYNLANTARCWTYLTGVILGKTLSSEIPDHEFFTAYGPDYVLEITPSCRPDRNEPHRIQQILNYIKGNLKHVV
The experiment in a line: Inhibition of human KDAC8 by fluorescence assay.

The target in test [2] is T2, Protein deacetylase HDAC6 (Homo sapiens, UniProt Q9UBN7).
T2 sequence (Q9UBN7 whole entry): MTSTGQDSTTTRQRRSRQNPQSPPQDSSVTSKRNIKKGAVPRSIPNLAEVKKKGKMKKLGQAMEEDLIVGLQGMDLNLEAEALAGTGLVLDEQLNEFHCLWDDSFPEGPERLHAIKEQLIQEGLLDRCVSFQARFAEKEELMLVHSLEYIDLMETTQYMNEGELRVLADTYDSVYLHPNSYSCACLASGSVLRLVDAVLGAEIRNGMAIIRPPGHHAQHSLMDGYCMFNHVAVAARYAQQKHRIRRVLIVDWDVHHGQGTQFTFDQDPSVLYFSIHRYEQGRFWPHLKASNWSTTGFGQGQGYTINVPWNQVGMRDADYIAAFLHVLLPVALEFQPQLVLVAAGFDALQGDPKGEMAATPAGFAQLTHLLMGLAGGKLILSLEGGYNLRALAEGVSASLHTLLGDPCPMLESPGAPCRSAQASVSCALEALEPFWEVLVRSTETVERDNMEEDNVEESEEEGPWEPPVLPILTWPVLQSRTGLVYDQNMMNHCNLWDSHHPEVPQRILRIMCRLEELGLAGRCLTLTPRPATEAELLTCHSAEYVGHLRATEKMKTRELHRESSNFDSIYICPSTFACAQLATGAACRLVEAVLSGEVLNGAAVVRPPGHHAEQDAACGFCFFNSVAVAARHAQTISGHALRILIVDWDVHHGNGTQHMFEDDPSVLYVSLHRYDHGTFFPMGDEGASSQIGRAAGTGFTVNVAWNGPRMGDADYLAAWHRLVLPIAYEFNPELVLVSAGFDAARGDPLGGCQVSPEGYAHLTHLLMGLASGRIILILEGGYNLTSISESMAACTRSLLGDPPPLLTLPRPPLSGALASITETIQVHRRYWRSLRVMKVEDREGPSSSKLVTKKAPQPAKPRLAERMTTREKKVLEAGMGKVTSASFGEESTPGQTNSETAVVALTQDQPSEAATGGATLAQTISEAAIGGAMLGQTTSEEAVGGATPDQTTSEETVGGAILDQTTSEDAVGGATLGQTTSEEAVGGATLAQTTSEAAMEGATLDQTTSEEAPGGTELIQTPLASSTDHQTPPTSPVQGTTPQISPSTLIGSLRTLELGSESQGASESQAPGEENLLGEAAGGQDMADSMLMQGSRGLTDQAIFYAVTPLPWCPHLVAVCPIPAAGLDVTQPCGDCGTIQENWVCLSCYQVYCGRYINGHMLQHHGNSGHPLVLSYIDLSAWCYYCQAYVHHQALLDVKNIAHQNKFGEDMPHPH
The test can be described thus: Inhibition of human KDAC6 by fluorescence assay.

Test [3] deals with T1, Histone deacetylase 8. The test can be described thus: Inhibition of recombinant human KDAC8 using FAM-labelled substrate B incubated for 60 mins by microfluidic chip-based assay.
In test [4] the target is T3, Histone deacetylase 1 (Homo sapiens, UniProt Q13547). The test can be described thus: Inhibition of recombinant human KDAC1 using FAM-labelled substrate A incubated for 60 mins by microfluidic chip-based assay.
The target of test [5] is T4, Histone deacetylase 3 (Homo sapiens, UniProt O15379). The experiment in a line: Inhibition of recombinant human KDAC3 using FITC-p53 acetylated peptide substrate incubated for 60 mins by microfluidic chip-based assay.
In test [6] the target is T2, Protein deacetylase HDAC6. The test can be described thus: Inhibition of human KDAC6.
The target of test [7] is T4, Histone deacetylase 3. The experiment in a line: Inhibition of human KDAC3.
The target of test [8] is T1, Histone deacetylase 8. The experiment in a line: Inhibition of human KDAC8.
Test [9] deals with T3, Histone deacetylase 1. The test can be described thus: Inhibition of human KDAC1.
The target of test [10] is T1, Histone deacetylase 8. The test can be described thus: Inhibition of full length human recombinant KDAC8 using fluorophore-conjugated substrate measured as fluorigenic release of 7-amino-4-methylcoumarin by microtiter plate reader analysis.

T3 sequence (Q13547 whole entry): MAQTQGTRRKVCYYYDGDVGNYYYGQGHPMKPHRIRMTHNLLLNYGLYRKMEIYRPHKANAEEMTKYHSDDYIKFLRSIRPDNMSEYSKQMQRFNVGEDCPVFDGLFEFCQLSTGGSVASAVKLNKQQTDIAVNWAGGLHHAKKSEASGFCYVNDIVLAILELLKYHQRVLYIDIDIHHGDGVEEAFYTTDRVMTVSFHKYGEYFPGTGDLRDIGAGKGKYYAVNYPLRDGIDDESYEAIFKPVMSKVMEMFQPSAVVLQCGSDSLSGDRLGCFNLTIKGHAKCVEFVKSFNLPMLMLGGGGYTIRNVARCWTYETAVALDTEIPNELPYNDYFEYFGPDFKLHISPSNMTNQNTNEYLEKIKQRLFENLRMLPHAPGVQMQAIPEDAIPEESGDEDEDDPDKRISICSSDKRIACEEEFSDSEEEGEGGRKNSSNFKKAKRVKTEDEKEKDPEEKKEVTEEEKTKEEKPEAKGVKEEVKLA
T4 sequence (O15379 whole entry): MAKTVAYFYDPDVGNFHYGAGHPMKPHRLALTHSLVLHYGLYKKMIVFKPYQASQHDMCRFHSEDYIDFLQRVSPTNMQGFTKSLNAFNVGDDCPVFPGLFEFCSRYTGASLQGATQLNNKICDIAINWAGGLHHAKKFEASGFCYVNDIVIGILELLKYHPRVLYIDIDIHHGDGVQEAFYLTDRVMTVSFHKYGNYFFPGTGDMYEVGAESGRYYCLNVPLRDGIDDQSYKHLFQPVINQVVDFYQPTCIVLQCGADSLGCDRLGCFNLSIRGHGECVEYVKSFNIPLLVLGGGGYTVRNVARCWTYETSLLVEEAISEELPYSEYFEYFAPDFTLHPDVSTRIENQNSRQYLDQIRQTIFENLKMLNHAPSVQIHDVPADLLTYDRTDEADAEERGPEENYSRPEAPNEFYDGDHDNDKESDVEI

As for `Nc1ccccc1NC(=O)c1ccc(-c2cn(CCc3ccsc3)nn2)cc1`, the 50% inhibitory concentration (IC50) (on Histone deacetylase 8 [1]; in [2]) was greater than 30 µM throughout.

For `CC(C)[C@@H]1NC(=O)[C@@H]2CCCN2C(=O)[C@H]2CCCN2C(=O)C[C@@H](C(=O)NCCCC(=O)NO)NC1=O`, the IC50 was greater than 30 µM at Histone deacetylase 8 [3], 25.1 µM on Histone deacetylase 1 [4] and 13.7 µM on Histone deacetylase 3 [5].

`CC(C)[C@@H]1NC(=O)[C@H]2CCCN2C(=O)[C@@H]2CCCN2C(=O)C[C@H](C(=O)NCCCC(=O)NO)NC1=O`: the IC50 at Histone deacetylase 8 [3], at Histone deacetylase 1 [4] and on Histone deacetylase 3 [5] was greater than 30 µM each time.

On to `CC(=O)SCC/C=C/[C@@H]1CC(=O)NCc2ccc(cc2)C2=N[C@@](C)(CS2)C(=O)N[C@@H](C(C)C)C(=O)O1`, for which the IC50 in test [6] is 1.61 µM; against Histone deacetylase 3 [7] it was 0.47 µM; against Histone deacetylase 8 [8], greater than 30 µM; against Histone deacetylase 1 [9] it was 3.48 µM.

With `CCCCCCCC(=O)SCC/C=C/[C@@H]1CC(=O)NCc2nc(cs2)C2=N[C@@](C)(CS2)C(=O)N[C@@H](C(C)C)C(=O)O1` [LARGAZOLE], on Histone deacetylase 8 [10], the 50% inhibitory concentration (IC50) was greater than 30 µM.
